Here are results for two compounds from patent publication EP0339176A1, “Suppository containing a non-steroidal anti-inflammatory medicament” (AMERICAN CYANAMID COMPANY, priority 1988, dated 1989).

Series [1] in a line: Clinical bioavailability study of Fenbufen suppositories. Type of series: in vivo. As to conditions: rectal. As for the experimental part:
Rectal administration of non-steroidal anti-inflammatory drugs can be clinically advantageous in some circumstances, in that it can prolong the effect of the drug. For example, when certain non-steroidal drugs are given rectally to a patient immediately prior to retiring for the night, sufficient blood levels of the drug are still available some 6-7 hours later to prevent morning stiffness. However, in the case of Fenbufen, the high level required for the nocturnal dose (450-600 mg) makes it difficult to deliver this drug successfully from the rectum. […] Accordingly, Fenbufen-containing suppository formulations for rectal administration have not been available, which is a disadvantage when Fenbufen would otherwise be the drug of choice for the patient.

Series [2] is described as follows: Solubility of BPAA salts in water relative to the free acid. Conditions: salt versus free acid.

Each structure is given as a SMILES string.

For the compound `O=C(O)CCC(=O)c1ccc(-c2ccccc2)cc1` [Fenbufen, 4-(biphenyl-4-yl)-4-oxo-butyric acid], in series [1], the “bioavailability of the active ingredient from suppositories” value is recorded as “low bioavailability”.

Consider `O=C(O)Cc1ccc(-c2ccccc2)cc1` [sodium], for which, in series [2], the “increase of the solubility of (1,1′-biphenyl)-4-acetic acid in water” value is 8-9 fold.
